Like-named read-outs stand apart in the source and are kept apart here.
Tests used:
NRAS G12C = biological target: T1, NRAS G12C (Homo sapiens, UniProt P01111+P62937, G12C); assay: Ras-Raf disruption/FRET/MOA assay, NRAS G12C; assay type: biochemical
T1 construct: His6
Summary of the method: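 Disruption of Ras:RAF binding was read as a drop in TR-FRET ratio versus DMSO controls. The buffer was 25 mM HEPES pH 7.3, 0.002% Tween20, 0.1% BSA, 100 mM NaCl and 5 mM MgCl2. Compounds were tested as a 10-point 3-fold dilution series from 30 μM. Detection used 10 nM anti-His Eu-W1024 and 50 nM anti-GST allophycocyanin.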

NCI-H358 (K-Ras G12C) = assay: CellTiter-Glo cell viability assay, H358; assay type: cell-based; conditions: Homo sapiens, NCI-H358, 120 h
Summary of the method: (§1)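 Luminescent viability readout on day 5, plates first brought to room temperature for ~30 min; compounds added straight to plated RAS-mutant cells. Values expressed as percent of mean DMSO signal, curves fitted with a four-parameter logistic model.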

KRAS WT = KRAS WT (Homo sapiens, UniProt P01116+P62937); assay: Ras-Raf disruption/FRET/MOA assay, KRAS WT; assay type: biochemical
Summary of the method: (§2)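 In this biochemical mechanism-of-action format, 12.5 nM GMPPNP-bound KRAS and 50 nM BRAF^RBD are mixed with 25 μM Cyclophilin A and dilution series of compound. After a 3 h incubation, tag-directed FRET antibodies report remaining KRAS:RAF association.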

KRAS G13D = KRAS G13D (Homo sapiens, UniProt P01116+P62937, G13D); assay: Ras-Raf disruption/FRET/MOA assay, KRAS G13D; assay type: biochemical
Summary of the method: as §2

KRAS G12V = KRAS G12V (Homo sapiens, UniProt P01116+P62937, G12V); assay: Ras-Raf disruption/FRET/MOA assay, KRAS G12V; assay type: biochemical
Summary of the method: as §2

KRAS G12S = KRAS G12S (Homo sapiens, UniProt P01116+P62937, G12S); assay: Ras-Raf disruption/FRET/MOA assay, KRAS G12S; assay type: biochemical
Summary of the method: as §2

KRAS G12D = KRAS G12D (Homo sapiens, UniProt P01116+P62937, G12D); assay: Ras-Raf disruption/FRET/MOA assay, KRAS G12D; assay type: biochemical
Summary of the method: as §2

KRAS G12C = KRAS G12C (Homo sapiens, UniProt P01116+P62937, G12C); assay: Ras-Raf disruption/FRET/MOA assay, KRAS G12C; assay type: biochemical
Summary of the method: as §2

AsPC-1 (K-Ras G12D) [1] = assay: CellTiter-Glo cell viability assay, AsPC-1; assay type: cell-based; conditions: Homo sapiens, ASPC1, 120 h
Summary of the method: as §1

KRAS G13C = KRAS G13C (Homo sapiens, UniProt P01116+P62937, G13C); assay: Ras-Raf disruption/FRET/MOA assay, KRAS G13C; assay type: biochemical
Summary of the method: as §2

AsPC-1 (K-Ras G12D) [2] = assay: Potency assay: pERK in AsPC-1 cells; assay type: cell-based; conditions: Homo sapiens
[3] = NRAS G12C FRET data IC50, NRAS G12C
[4] = read-out: H358 Cell Viability IC50, NCI-H358, K-Ras G12C, 5-day treatment
[5] = read-out: AsPC-1 Cell Viability IC50, AsPC-1, K-Ras G12D, 5-day treatment
[6] = ASPC1, read-out: pERK EC50 (AsPC-1 KRAS G12D)
[7] = NRAS G12C, read-out: NRAS G12C FRET data IC50
[8] = disruption of BRAF RBD binding, with Cyclophilin A, read-out: KRAS WT FRET IC50
[9] = disruption of BRAF RBD binding, with Cyclophilin A, read-out: KRAS G13D FRET IC50
[10] = disruption of BRAF RBD binding, with Cyclophilin A, read-out: KRAS G12V FRET IC50
[11] = disruption of BRAF RBD binding, with Cyclophilin A, read-out: KRAS G12S FRET IC50
[12] = disruption of BRAF RBD binding, with Cyclophilin A, read-out: KRAS G12D FRET IC50
[13] = disruption of BRAF RBD binding, with Cyclophilin A, read-out: KRAS G12C FRET IC50
[14] = disruption of BRAF RBD binding, with Cyclophilin A, read-out: KRAS G13C FRET IC50

Chain of KRAS G13C (P01116 1-169 isoform P01116-2 G13C limits assumed): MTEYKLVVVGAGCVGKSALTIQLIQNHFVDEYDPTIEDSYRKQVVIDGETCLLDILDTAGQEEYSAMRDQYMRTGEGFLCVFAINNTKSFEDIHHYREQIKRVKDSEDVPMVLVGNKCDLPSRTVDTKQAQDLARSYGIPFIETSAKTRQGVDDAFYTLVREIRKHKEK
Chain of KRAS G13C (P62937 whole entry): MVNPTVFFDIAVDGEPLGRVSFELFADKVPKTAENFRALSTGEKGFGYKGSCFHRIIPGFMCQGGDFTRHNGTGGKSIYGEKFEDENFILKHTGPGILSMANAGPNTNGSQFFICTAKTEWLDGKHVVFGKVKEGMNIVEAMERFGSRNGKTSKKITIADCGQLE
Chain of KRAS G13D (P01116 1-169 isoform P01116-2 G13D limits assumed): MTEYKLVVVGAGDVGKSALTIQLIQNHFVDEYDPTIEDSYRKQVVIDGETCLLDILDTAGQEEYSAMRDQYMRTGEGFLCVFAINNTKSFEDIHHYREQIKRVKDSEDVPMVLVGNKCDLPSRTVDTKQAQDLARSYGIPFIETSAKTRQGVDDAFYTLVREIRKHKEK
Chain of KRAS G13D (P62937 whole entry): as the sequence (P62937 whole entry) above
Chain of KRAS G12D (P01116 1-169 isoform P01116-2 G12D limits assumed): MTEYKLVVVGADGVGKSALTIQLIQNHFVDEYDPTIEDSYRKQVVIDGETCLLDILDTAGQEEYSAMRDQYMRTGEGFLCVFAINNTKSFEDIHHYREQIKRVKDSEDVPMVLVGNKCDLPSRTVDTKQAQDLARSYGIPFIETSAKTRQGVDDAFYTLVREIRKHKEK
Chain of KRAS G12D (P62937 whole entry): as the sequence (P62937 whole entry) above
T1 sequence (P01111 whole entry G12C): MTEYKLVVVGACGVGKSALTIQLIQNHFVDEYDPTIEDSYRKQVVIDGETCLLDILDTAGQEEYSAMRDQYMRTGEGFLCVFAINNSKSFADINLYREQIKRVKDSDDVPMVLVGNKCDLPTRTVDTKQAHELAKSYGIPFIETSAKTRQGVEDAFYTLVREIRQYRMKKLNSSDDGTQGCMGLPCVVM
T1 sequence (P62937 whole entry): as the sequence (P62937 whole entry) above
Chain of KRAS G12C (P01116 1-169 isoform P01116-2 G12C limits assumed): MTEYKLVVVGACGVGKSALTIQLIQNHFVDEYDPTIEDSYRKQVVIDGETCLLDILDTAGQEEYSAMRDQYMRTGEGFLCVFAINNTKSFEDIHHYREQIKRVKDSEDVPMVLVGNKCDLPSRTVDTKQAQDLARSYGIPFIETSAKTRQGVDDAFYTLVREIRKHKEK
Chain of KRAS G12C (P62937 whole entry): as the sequence (P62937 whole entry) above
Chain of KRAS G12V (P01116 1-169 isoform P01116-2 G12V limits assumed): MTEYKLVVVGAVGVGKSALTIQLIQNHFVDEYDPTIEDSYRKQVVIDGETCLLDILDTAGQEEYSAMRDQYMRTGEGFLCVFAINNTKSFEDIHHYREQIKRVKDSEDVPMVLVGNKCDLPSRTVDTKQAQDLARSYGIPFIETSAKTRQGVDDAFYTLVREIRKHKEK
Chain of KRAS G12V (P62937 whole entry): as the sequence (P62937 whole entry) above
Chain of KRAS WT (P01116 1-169 isoform P01116-2 limits assumed): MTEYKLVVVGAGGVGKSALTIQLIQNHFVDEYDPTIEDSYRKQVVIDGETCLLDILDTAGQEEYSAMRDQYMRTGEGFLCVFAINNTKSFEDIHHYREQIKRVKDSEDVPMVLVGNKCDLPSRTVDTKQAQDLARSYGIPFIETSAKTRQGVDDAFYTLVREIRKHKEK
Chain of KRAS WT (P62937 whole entry): as the sequence (P62937 whole entry) above
Chain of KRAS G12S (P01116 1-169 isoform P01116-2 G12S limits assumed): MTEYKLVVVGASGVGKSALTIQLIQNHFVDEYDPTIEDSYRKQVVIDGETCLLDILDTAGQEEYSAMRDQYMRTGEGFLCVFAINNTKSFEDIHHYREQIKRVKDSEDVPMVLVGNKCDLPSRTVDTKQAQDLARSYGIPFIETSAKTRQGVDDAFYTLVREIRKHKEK
Chain of KRAS G12S (P62937 whole entry): as the sequence (P62937 whole entry) above

Row | Structure (SMILES) | IC50 (NRAS G12C; [3]) | IC50 (NCI-H358 (K-Ras G12C); [4]) | IC50 (KRAS WT) | IC50 (KRAS G13D) | IC50 (KRAS G12V) | IC50 (KRAS G12S) | IC50 (KRAS G12D) | IC50 (KRAS G12C) | IC50 (AsPC-1 (K-Ras G12D) [1]; [5]) | IC50 (KRAS G13C) | EC50 (AsPC-1 (K-Ras G12D) [2]; [6]) | IC50 (NRAS G12C; [7]) | IC50 (KRAS WT; [8]) | IC50 (KRAS G13D; [9]) | IC50 (KRAS G12V; [10]) | IC50 (KRAS G12S; [11]) | IC50 (KRAS G12D; [12]) | IC50 (KRAS G12C; [13]) | IC50 (KRAS G13C; [14]) | further results
1 | CCn1c(-c2cccnc2[C@H](C)OC)c2c3cc(ccc31)-c1cc(O)cc(c1)C[C@H](NC(=O)[C@H](C(C)C)N(C)C(=O)CN(C)C(=O)[C@@H]1CN1)C(=O)N1CCC[C@H](N1)C(=O)OCC(C)(C)C2 [Compound 150] | < 0.01 µM | < 0.01 µM | 0.01 to 0.1 µM | 0.01 to 0.1 µM | 0.01 to 0.1 µM | 0.01 to 0.1 µM | 0.01 to 0.1 µM | < 0.01 µM | 0.1 to 1 µM | 0.01 to 0.1 µM | < 5 µM |  |  |  |  |  |  |  |  | 
2 | CCn1c(-c2cnccc2COC)c2c3cc(ccc31)-c1cc(O)cc(c1)C[C@H](NC(=O)[C@H](C(C)C)N(C)C(=O)CN(C)C(=O)C1CN1C(C)=O)C(=O)N1CCC[C@H](N1)C(=O)OCC(C)(C)C2 (stereo partly shown) [Compound 14] |  |  |  |  |  |  |  |  |  |  | < 5 µM | 0.01 to 0.1 µM | 0.1 to 1 µM | 0.1 to 1 µM | 0.1 to 1 µM | 0.1 to 1 µM | 0.1 to 1 µM | 0.01 to 0.1 µM | 0.01 to 0.1 µM | IC50 (NCI-H358 (K-Ras G12C); read-out: H358 Cell Viability IC50): 0.1 to 1 µM; IC50 (AsPC-1 (K-Ras G12D) [1]; read-out: AsPC-1 Cell Viability IC50): 1 to 10 µM
3 | CCn1c(-c2cnccc2COC)c2c3cc(ccc31)-c1cc(O)cc(c1)C[C@H](NC(=O)[C@H](C(C)C)N(C)C(=O)CN(C)C(=O)[C@H]1CN1)C(=O)N1CCC[C@H](N1)C(=O)OCC(C)(C)C2 [Example 7, (2R)—N-(2-(((2S)-1-(((6^3S,4S)-1^1-ethyl-2^5-hydroxy-1^2-(4-(methoxymethyl)pyridin-3-yl)-10,10-dimethyl-5,7-dioxo-6^1,6^2,6^3,6^4,6^5,6^6-hexahydro-1^1H-8-oxa-1(5,3)-indola-6(1,3)-pyridazina-2(1,3)-benzenacycloundecaphane-4-yl)amino)-3-methyl-1-oxobutan-2-yl)(methyl)amino)-2-oxoethyl)-N-methylaziridine-2-carboxamide] | < 0.01 µM | 0.01 to 0.1 µM | 0.1 to 1 µM | 0.1 to 1 µM | 0.1 to 1 µM | 0.01 to 0.1 µM | 0.1 to 1 µM | < 0.01 µM | 0.1 to 1 µM | 0.01 to 0.1 µM | < 5 µM |  |  |  |  |  |  |  |  | 
4 | CCn1c(-c2cnccc2COC)c2c3cc(ccc31)-c1cc(O)cc(c1)C[C@H](NC(=O)[C@H](C(C)C)N(C)C(=O)CN(C)C(=O)[C@H]1CN1Cc1ccccc1)C(=O)N1CCC[C@H](N1)C(=O)OCC(C)(C)C2 (stereo partly shown) [Compound 9] | 0.01 to 0.1 µM | 0.01 to 0.1 µM | 0.1 to 1 µM | 0.1 to 1 µM | 0.1 to 1 µM | 0.1 to 1 µM | 1 to 10 µM | 0.01 to 0.1 µM | 1 to 10 µM | 0.1 to 1 µM | < 5 µM |  |  |  |  |  |  |  |  | 
5 | CCn1c(-c2cccnc2[C@H](C)OC)c2c3cc(ccc31)-c1cc(O)cc(c1)C[C@H](NC(=O)[C@H](C1CCCC1)N(C)C(=O)[C@H]1CCN(C(=O)[C@H]3CN3)C1)C(=O)N1CCC[C@H](N1)C(=O)OCC(C)(C)C2 [Compound 58] |  |  |  |  |  |  |  |  |  |  |  | < 0.01 µM | 0.01 to 0.1 µM | 0.01 to 0.1 µM | 0.01 to 0.1 µM | 0.01 to 0.1 µM | 0.1 to 1 µM | < 0.01 µM | 0.01 to 0.1 µM | IC50 (NCI-H358 (K-Ras G12C); NCI-H358, K-Ras G12C, 5-day treatment, read-out: H358 Cell Viability IC50): < 0.01 µM; IC50 (AsPC-1 (K-Ras G12D) [1]; AsPC-1, K-Ras G12D, 5-day treatment, read-out: AsPC-1 Cell Viability IC50): 0.1 to 1 µM; EC50 (AsPC-1 (K-Ras G12D) [2]; ASPC1, AsPC-1 cells, K-Ras G12D, read-out: pERK EC50 (AsPC-1 KRAS G12D)): < 5 µM

Reference: US11739074B2, “Ras inhibitors” (Revolution Medicines, Inc., priority 2019, dated 2023)
